From patent publication US8377975B2, “Oxadiazole derivatives for the treatment of diabetes” (Merck Patent Gesellschaft Mit Beschrankter Haftung, priority 2008, dated 2013)
pIC50: −log10 of the molar value.

Legend:
Type in all cases: biochemical
SGK1 = biological target: T1, SGK1 (Homo sapiens, UniProt O00141); test: SGK1 enzyme inhibition (filter binding method); conditions: Target SGK1
T1 sequence (O00141 1-431): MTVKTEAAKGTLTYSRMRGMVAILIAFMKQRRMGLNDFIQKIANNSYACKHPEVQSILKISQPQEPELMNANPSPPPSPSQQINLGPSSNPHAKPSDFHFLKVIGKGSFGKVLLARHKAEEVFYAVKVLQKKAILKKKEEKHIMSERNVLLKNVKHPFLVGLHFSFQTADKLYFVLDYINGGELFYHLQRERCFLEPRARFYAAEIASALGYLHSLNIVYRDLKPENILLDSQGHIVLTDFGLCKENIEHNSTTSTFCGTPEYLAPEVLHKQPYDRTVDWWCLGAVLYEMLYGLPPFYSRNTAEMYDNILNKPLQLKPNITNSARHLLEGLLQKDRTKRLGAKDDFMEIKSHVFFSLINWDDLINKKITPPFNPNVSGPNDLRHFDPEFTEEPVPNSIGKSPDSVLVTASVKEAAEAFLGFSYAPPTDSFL
Source text: Other assays are known from the literature and could readily be performed by the person skilled in the art (see, for example, Dhanabal et al., Cancer Res. 59:189-197; Xin at al., J. Biol. Chem. 274:9116-9121; Sheu et al., Anticancer Res. 18:4435-4441; Ausprunk et al., Dev. Biol. 38:237-248; Gimbrone et al., J. Natl. Cancer Inst. 52:413-427; Nicosia at al., In Vitro 18:538- 549). The inhibition of SGK1 protein kinase can be determined in the filter binding method.

GSK3-beta = GSK3-beta (Homo sapiens, UniProt P49841); test: GSK3-beta enzyme inhibition; conditions: Target GSK3-beta
Sequence of GSK3-beta (P49841 whole entry): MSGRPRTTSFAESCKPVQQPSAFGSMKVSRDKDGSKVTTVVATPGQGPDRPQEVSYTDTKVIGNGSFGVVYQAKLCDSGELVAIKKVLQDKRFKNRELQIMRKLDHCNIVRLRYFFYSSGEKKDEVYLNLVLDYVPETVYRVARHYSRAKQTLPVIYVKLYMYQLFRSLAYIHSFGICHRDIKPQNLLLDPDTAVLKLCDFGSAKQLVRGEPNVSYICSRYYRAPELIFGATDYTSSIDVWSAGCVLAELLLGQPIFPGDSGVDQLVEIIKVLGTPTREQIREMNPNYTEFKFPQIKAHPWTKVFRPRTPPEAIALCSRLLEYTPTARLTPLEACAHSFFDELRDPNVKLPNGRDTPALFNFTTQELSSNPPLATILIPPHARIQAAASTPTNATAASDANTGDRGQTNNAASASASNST

SGK2 = biological target: T2, SGK2 (Homo sapiens, UniProt Q9HBY8); test: SGK2 enzyme inhibition; conditions: Target SGK2
T2 sequence (Q9HBY8 1-367): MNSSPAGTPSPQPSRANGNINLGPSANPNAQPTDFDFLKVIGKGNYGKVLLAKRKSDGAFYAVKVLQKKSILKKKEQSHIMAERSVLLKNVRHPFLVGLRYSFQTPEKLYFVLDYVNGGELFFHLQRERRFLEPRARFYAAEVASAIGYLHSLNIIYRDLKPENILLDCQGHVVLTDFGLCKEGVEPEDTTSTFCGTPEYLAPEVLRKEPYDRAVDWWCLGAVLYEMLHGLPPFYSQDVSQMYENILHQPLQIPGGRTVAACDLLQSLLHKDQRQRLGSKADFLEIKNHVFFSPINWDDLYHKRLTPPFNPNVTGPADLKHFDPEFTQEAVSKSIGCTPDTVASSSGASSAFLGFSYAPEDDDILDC

SGK3 = biological target: T3, SGK3 (Homo sapiens, UniProt Q96BR1); test: SGK3 enzyme inhibition; conditions: Target SGK3
T3 sequence (Q96BR1 1-496): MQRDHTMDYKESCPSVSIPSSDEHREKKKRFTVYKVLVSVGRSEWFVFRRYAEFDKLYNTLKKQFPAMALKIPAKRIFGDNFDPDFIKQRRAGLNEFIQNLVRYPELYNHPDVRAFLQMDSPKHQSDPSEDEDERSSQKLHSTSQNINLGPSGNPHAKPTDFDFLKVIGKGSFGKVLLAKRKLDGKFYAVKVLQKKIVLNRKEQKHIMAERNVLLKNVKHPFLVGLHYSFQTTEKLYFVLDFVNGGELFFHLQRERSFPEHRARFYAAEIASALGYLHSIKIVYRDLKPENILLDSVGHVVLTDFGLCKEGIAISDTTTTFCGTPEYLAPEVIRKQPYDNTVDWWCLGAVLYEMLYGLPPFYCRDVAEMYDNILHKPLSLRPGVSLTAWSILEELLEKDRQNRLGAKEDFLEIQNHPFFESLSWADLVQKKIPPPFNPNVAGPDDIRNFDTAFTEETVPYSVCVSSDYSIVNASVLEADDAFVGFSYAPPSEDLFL

Row | pIC50 (SGK1) | pIC50 (GSK3-beta) | pIC50 (SGK2) | pIC50 (SGK3) | SMILES
1 | < 5.00 |  |  |  | Oc1ccc(-c2nnc(NCc3cccc(F)c3)o2)nc1 [Compound A5, 6-[5-(3-fluorobenzylamino)-1,3,4-oxadiazol-2-yl]pyridin-3-ol]
2 | 7.00 to 9.00 | 7.00 to 9.00 | 7.00 to 9.00 | 7.00 to 9.00 | CCc1c(-c2nnc(NCc3cccc(F)c3)o2)ccc(O)c1C [Compound A1, 3-ethyl-4-[5-(3-fluorobenzylamino)-1,3,4-oxadiazol-2-yl]-2-methylphenol]
3 | < 5.00 |  |  |  | Oc1ccc(-c2nnc(NCc3cccc(F)c3)o2)c(F)c1F [Compound A6, 2,3-difluoro-4-[5-(3-fluorobenzylamino)-1,3,4-oxadiazol-2-yl]phenol]
4 | 5.00 to 7.00 |  |  |  | CCc1c(-c2nnc(N)o2)ccc(O)c1C [Compound A4, 4-(5-amino-1,3,4-oxadiazol-2-yl)-3-ethyl-2-methylphenol]
5 | 7.00 to 9.00 | 5.00 to 7.00 |  |  | CCc1c(-c2nnc(NCc3cccc(OC)c3)o2)ccc(O)c1C [Compound A2]
6 | 7.00 to 9.00 | 7.00 to 9.00 |  |  | CCc1c(-c2nnc(N[C@H](C)c3cccc(OC)c3)o2)ccc(O)c1C [Compound A3]
